For assay [1], the target named is T1, Ferrochelatase, mitochondrial (Homo sapiens) (UniProt P22830).
T1 sequence (whole entry): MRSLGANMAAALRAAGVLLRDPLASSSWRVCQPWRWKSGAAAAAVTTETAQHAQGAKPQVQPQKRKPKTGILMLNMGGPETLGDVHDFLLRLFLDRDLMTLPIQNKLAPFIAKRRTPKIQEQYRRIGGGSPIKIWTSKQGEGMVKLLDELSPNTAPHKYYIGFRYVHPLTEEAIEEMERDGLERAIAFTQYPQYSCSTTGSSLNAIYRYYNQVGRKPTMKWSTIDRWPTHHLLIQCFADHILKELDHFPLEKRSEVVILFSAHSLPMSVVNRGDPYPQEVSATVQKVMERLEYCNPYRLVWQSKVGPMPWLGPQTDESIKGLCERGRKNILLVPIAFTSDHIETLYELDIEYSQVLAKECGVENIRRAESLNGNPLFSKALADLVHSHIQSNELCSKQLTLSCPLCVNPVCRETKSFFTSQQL
Particulars: at 10 µM.
Description: Compound was evaluated for the inhibition of human FECH at 10uM

The target of assay [2] is T2, Porphobilinogen deaminase (Homo sapiens) (UniProt P08397).
T2 sequence (whole entry): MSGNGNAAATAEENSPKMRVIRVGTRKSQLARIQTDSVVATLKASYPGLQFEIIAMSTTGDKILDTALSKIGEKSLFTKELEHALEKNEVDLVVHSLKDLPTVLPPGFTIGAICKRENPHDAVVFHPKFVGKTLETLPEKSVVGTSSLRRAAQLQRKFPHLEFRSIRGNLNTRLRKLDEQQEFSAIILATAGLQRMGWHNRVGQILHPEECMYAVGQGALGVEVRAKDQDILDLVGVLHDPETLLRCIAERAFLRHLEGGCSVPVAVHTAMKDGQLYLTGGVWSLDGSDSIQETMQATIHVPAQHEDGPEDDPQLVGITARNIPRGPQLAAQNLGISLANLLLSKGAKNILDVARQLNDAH
The settings on record: at 100 µM.
Description: Compound was evaluated for the inhibition of human HMBS at 100uM

Inhibition data for 53 compounds are collected here from ChEMBL document CHEMBL3987221, “The Australian National University Dept Of Immunology Pathogen Box Compounds Screened” (2018).

Structures are written as SMILES. The source made the active and inactive calls. The rule behind the calls is not given here.

Regarding `N=C(N)c1ccc(-c2cc(-c3ccccc3)on2)cc1`, the inhibition entry in assay [1] and in assay [2] was “inactive” in each case.

`COc1cccc(-c2nc3c(N4CCCC4)cccc3n2CC2CCCN2)n1` (stereo unspecified): the inhibition entry in assay [1] and in assay [2] was “inactive” in each case.

`CCc1nc2ccccc2n1CC(O)COc1cc(C)ccc1Cl` (stereo unspecified): the inhibition entry in assay [1] and in assay [2] was “inactive” throughout.

On to `O=C(NC1CCCCC1)N1CCN(Cc2ccc3c(c2)OCO3)CC1`, for which the inhibition result in assay [1] and in assay [2] was “inactive” in each case.

In the case of `c1csc(-c2cnc3sc(NCC4CCOCC4)nn23)c1`, the inhibition result in assay [1] and in assay [2] was “inactive” throughout.

Take `O=C(Nc1ccccc1)c1ccc(-c2cc3ccncc3cc2OC2CCNCC2)s1`: the inhibition result in assay [1] and in assay [2] was “inactive” throughout.

Consider `COc1ccc(-c2onc(C(F)(F)F)c2-c2ccc(Cl)cc2)c(O)c1`, for which the inhibition entry in assay [1] and in assay [2] was “inactive” throughout.

With `O=C(Nc1nnc(S)s1)c1cc(Br)ccc1Cl`, the inhibition result in assay [1] and in assay [2] was “inactive” each time.

With `Cc1nn2c(=O)c3c([nH]c2c1-c1ccc(Cl)cc1)CCCC3`, the inhibition entry in assay [1] and in assay [2] was “inactive” in each case.

Consider `O=C(C1CCCCC1)N1CC(=O)N2CCc3ccccc3C2C1` (stereo unspecified), for which the inhibition result in assay [1] and in assay [2] was “inactive” throughout.

As to `CC(C)/N=c1\cc2n(-c3ccc(Cl)cc3)c3ccccc3nc-2cc1Nc1ccc(Cl)cc1`, the inhibition entry in assay [1] and in assay [2] was “inactive” throughout.

Take `O=C(c1ccc(F)cc1)N(CCNc1ccccc1)c1ccccc1`: the inhibition result in assay [1] and in assay [2] was “inactive” throughout.

On to `Nc1ncnc2c1c(-c1cnc3ccccc3c1)nn2CC1CCNCC1`, for which the inhibition result in assay [1] and in assay [2] was “inactive” each time.

Regarding `Cc1cccc(Cn2ccc(NC(=O)c3ccc4c(c3)OCO4)n2)c1`, the inhibition result in assay [1] and in assay [2] was “inactive” in each case.

With `CCOc1ccc(-c2nc(CNCCc3ccc(F)cc3)cs2)cc1`, the inhibition entry in assay [1] and in assay [2] was “inactive” throughout.

Regarding `CC(C)(C)n1nc(Cc2cccc3ccccc23)c2c(N)ncnc21`, the inhibition result in assay [1] and in assay [2] was “inactive” throughout.

Regarding `CN1CCN(S(=O)(=O)c2ccc(-c3ccc4c(Nc5ncc(Cl)cn5)ccnc4c3)cc2)CC1`, the inhibition entry in assay [1] and in assay [2] was “inactive” in each case.

As for `CNC1C(OC2C(OC3C(O)C(O)C(N=C(N)N)C(O)C3N=C(N)N)OC(C)C2(O)C=O)OC(CO)C(O)C1O` (stereo unspecified), the inhibition entry in assay [1] and in assay [2] was “inactive” in each case.

With `C[C@H]1COc2c(N3CCN(C)CC3)c(F)cc3c(=O)c(C(=O)O)cn1c23`, the inhibition result in assay [1] and in assay [2] was “inactive” throughout.

As for `Cc1ccc(NC(=O)c2nc[nH]c2C(=O)Nc2nc3ccccc3[nH]2)c(C)c1`, the inhibition entry in assay [1] and in assay [2] was “inactive” each time.

Turning to `Nc1ccc(C(=O)Nc2ccc(-c3nc4ccccc4o3)cc2)cc1`, the inhibition entry in assay [1] and in assay [2] was “inactive” each time.

For `Cc1cccc(-c2nc(Nc3ccncn3)c3sccc3n2)n1`, the inhibition entry in assay [1] and in assay [2] was “inactive” throughout.

On to `CC(C)(C)OC(=O)N1CCC(Cn2nc(-c3cnc4ccccc4c3)c3c(N)ncnc32)CC1`, for which the inhibition entry in assay [1] and in assay [2] was “inactive” throughout.

As for `Cc1nc(-c2ccccn2)nc(N(C)CCc2ccccc2)c1Cl`, the inhibition result in assay [1] and in assay [2] was “inactive” in each case.

`O=C1N(Cc2cc3ccccc3s2)CC2CN(Cc3ccccc3)CCN12` (stereo unspecified): the inhibition entry in assay [1] and in assay [2] was “inactive” throughout.

As to `Nc1ncc(-c2ccc(C(F)(F)F)nc2)cc1-c1ccc(C(F)(F)F)nc1`, the inhibition entry in assay [1] and in assay [2] was “inactive” throughout.

On to `COc1cc(C2=NCCN2)ccc1-c1cn(-c2cccc(C3=NCCN3)c2)nn1`, for which the inhibition result in assay [1] and in assay [2] was “inactive” throughout.

Consider `O=C(OCc1ccccc1)N1CCC(c2cc(-c3ccncc3)c(-c3ccc(F)cc3)[nH]2)CC1`, for which the inhibition result in assay [1] and in assay [2] was “inactive” throughout.

As to `CCCc1ccc(S(=O)(=O)Nc2ccc(CN3CCN(CC4CC4)CC3)cc2)cc1`, the inhibition entry in assay [1] and in assay [2] was “inactive” each time.

On to `NCC(=O)N1CCn2c(nc(-c3ccccc3)c2Nc2ccc3c(c2)OCO3)C1`, for which the inhibition result in assay [1] and in assay [2] was “inactive” in each case.

In the case of `COc1ccc(OC(C)C(=O)Nc2ccc(Cl)cc2C)cc1` (stereo unspecified), the inhibition entry in assay [1] and in assay [2] was “inactive” throughout.

As to `Cc1cc(C)nc(-n2nc(C)cc2Nc2ccccc2)n1`, the inhibition entry in assay [1] and in assay [2] was “inactive” each time.

For `Brc1cncc(-c2cc(NCCCn3ccnc3)nc(-c3ccccc3)n2)c1`, the inhibition result in assay [1] and in assay [2] was “inactive” each time.

Turning to `CCn1cnc2c(Nc3cc(F)cc(F)c3)nc(C#N)nc21`, the inhibition result in assay [1] and in assay [2] was “inactive” each time.

Consider `Cn1c(=O)c2c(S(C)(=O)=O)snc2n(C)c1=O`, for which the inhibition result in assay [1] and in assay [2] was “inactive” throughout.

For the compound `O[C@@H](c1cc(C(F)(F)F)nc2c(C(F)(F)F)cccc12)[C@H]1CCCCN1`, the inhibition entry in assay [1] and in assay [2] was “inactive” each time.

Take `COc1cccc(CC(=O)N2CCC(n3c(C)nc4ccc(F)cc43)CC2)c1`: the inhibition result in assay [1] and in assay [2] was “inactive” each time.

For `Nc1ncc(Br)cc1-c1nc2cc(Cl)cnc2[nH]1`, the inhibition result in assay [1] and in assay [2] was “inactive” each time.

As for `CN1CCN(c2nccc3[nH]c(-c4cccc(F)c4)cc23)CC1`, the inhibition result in assay [1] and in assay [2] was “inactive” in each case.

With `N#Cc1ccc(-c2cnc(N)c(-c3ccc(C(N)=O)cc3)n2)cc1`, the inhibition entry in assay [1] and in assay [2] was “inactive” throughout.

Regarding `FC(F)(F)c1cccc(-c2nc3c(NCc4ccncc4)nccc3[nH]2)c1`, the inhibition entry in assay [1] and in assay [2] was “inactive” in each case.

Regarding `CCC(=O)Nc1ccccc1C(=O)Nc1ccccn1`, the inhibition entry in assay [1] and in assay [2] was “inactive” throughout.

Consider `C[C@@H]1[C@H](O)[C@@H](C)/C=C/C=C/C=C/C=C/C=C/C=C/C=C/[C@H](O[C@@H]2O[C@H](C)[C@@H](O)[C@H](N)[C@@H]2O)C[C@@H]2O[C@](O)(C[C@@H](O)C[C@@H](O)[C@H](O)CC[C@@H](O)C[C@@H](O)CC(=O)O[C@H]1C)C[C@H](O)[C@H]2C(=O)O`, for which the inhibition result in assay [1] and in assay [2] was “inactive” in each case.

Regarding `Cc1nn(C)c(C)c1NS(=O)(=O)c1c(Cl)cc(-c2ccnc(N3CCNCC3)c2)cc1Cl`, the inhibition result in assay [1] and in assay [2] was “inactive” each time.

In the case of `COc1nc2ccc(Br)cc2cc1[C@@H](c1ccccc1)[C@@](O)(CCN(C)C)c1cccc2ccccc12`, the inhibition result in assay [1] and in assay [2] was “inactive” in each case.

Regarding `CCc1ccc([C@@H]2C[C@H](C(F)(F)F)n3ncc(C(=O)NCc4ccc(OC)cc4)c3N2)cc1`, the inhibition result in assay [1] and in assay [2] was “inactive” each time.

`CCc1ccccc1-n1c(C)cn2c3c(=O)n(C(C(=O)OC)C(C)C)c(=O)n(C)c3nc12` (stereo unspecified): the inhibition entry in assay [1] and in assay [2] was “inactive” each time.

On to `CO[C@@H]1CN(c2ccc(C#CC3(O)CN4CCC3CC4)c(Cc3ccccc3)n2)C[C@H]1O` (stereo partly specified), for which the inhibition result in assay [1] and in assay [2] was “inactive” in each case.

As for `CC(C)n1nc(-c2cc3c(Cl)cccc3[nH]2)c2c(N)ncnc21`, the inhibition result in assay [1] and in assay [2] was “inactive” in each case.

`CCCCc1ccc(NC(=O)Nc2ccc(O[C@H]3CCCC[C@@H]3N(C)c3ccccc3)c(F)c2)cc1`: the inhibition entry in assay [1] and in assay [2] was “inactive” throughout.

Consider `N=C(N)Nc1ccc(-c2ccc(-c3ccc(N=C(N)N)c(Cl)c3)o2)cc1Cl`, for which the inhibition entry in assay [1] and in assay [2] was “inactive” each time.

Consider `CN(C)CCNC(=O)N1CCCN(c2ncnc3cc(-c4ccccc4)sc23)CC1`, for which the inhibition result in assay [1] and in assay [2] was “inactive” throughout.

Consider `COC(=O)c1ccc(F)cc1NS(=O)(=O)c1cccc(-c2cnn(Cc3ccccc3)c2)c1`, for which the inhibition result in assay [1] and in assay [2] was “inactive” each time.
